{
  "source": "patent US11540542B2",
  "about": "“Taste modulating aldehydes” (TAKASAGO INTERNATIONAL CORPORATION, priority 2016, dated 2023)",
  "system": "trained experts",
  "test": "Monkfruit juice beverage taste comparison, trained experts",
  "settings": "0.000001% cut of 1% 2,6-nonadienal in ethyl acetate, used at 0.10% in Monkfruit beverage (juice concentrate 0.15%); three trained experts",
  "protocol": "A taste comparison was conducted by combining and mixing 0.000001% cut of 1% 2,6-nonadienal (I % in ethanol) in ethyl acetate and used that dilution at 0.10% in a Monkfruit beverage in water, wherein Monkfruit juice concentrate was present at 0.15%. Three trained experts evaluated the combination against a control of Monkfruit juice without the taste modulation compound.",
  "data": [
    {"smiles": "CCC=CCCC=CC=O", "note": "[2,6-nonadienal]", "values": [
      {"measurement": "modulation of off-notes of Monkfruit juice versus control", "value": "demonstrated a modulation of the off-notes"}
    ]}
  ]
}
